Residues, ends and D or L forms follow the SMILES beside them.
Key:
[1] = pH-solubility profile of candidate peptides (HPLC of filtrate); assay type: physicochemical; conditions: for solubility (in words, against the superior solubility standard of 3 mg/ml): development of DPII-22.14 from DpII-22; for solubility thermodynamic at 24 h: at a pH in the pH range of pH 6 to pH 8, 50 mM sodium phosphate, about 22° C.
Description: Stock solution A: 0.66 g […] of monobasic sodium phosphate monohydrate U.S.P. and 50 mg EDTA disodium dihydrate, U.S.P. were dissolved in 100 mL of WFI. The solution was filtered through a 0.2 micron filter
Stock solution B: 0.71 g […] of dibasic sodium phosphate U.S.P. were disolved in 100 ml WFI. The solution was filtered through a 0.2 micron filter.
Dispersions A and B were sonicated for 2 minutes for good homogeneity. A small volume was pipetted from each dispersion into a labeled eppendoff vial according to the following volume ratio:
The resultant solutions/suspensions were stored in the dark at about 22° C.±2 for 24 hours without agitation. The solutions were filtered and filtrates were analyzed for pH and peptide concentration.

[2] = pH-stability profile of candidate peptides (percent degradant peak area by HPLC); conditions: for stability (in words): single peptide, aqueous buffer, pH 6 to pH 8, development of DPII-22.14; for solution stability in equal concentration combination: 3, 2 and 1 mg/ml per peptide, 24 hours at about 5° C. and about 22° C., common window within pH 6 to pH 8
Description: The concentration of filtered peptide solutions was determined by HPLC analysis. In this experiment, the solubility of peptide at each pH is defined as the amount of peptide remaining in solution after filtration through a membrane filter having a 0.2 micrometer pore size. The extent of degradation of peptides was estimated by calculating the percent of total degradant peak area over the total peak area.

[3] = test system: human IgE; assay: Direct binding ELISA of IgE to mite allergen proteins and peptides (Examples XIII, XV); conditions: pooled human plasma from 20 mite skin test positive patients; coating antigen 5 μg/ml; FIGS. 19-21
Description: Corning assay plates (#25882-96) were coated with 5 μg/ml of each coating antigen listed in FIGS. 19, 20 and 21 at […] and incubated overnight at 4° C. The coating antigens were removed and the wells are blocked with 0.5% gelatin in PBS, 300 μl/well for 2 hours at room temperature. […] Louis, Mo.) and 100 μl/well a\was added and incubated overnight at 4° C. (plasma dilutions were tested in duplicate). The second antibody (biotinylated goat anti-Human IgE, 1:1000, Kirkegaard & Perry Laboratories Inc, Gaithersburg, Md.), was added at 100 μl/well for one hour at room temperature. This solution was removed and streptavidin-HRPO, 1:10000, (Southern Biotechnology Associates, Inc., Birmingham, Ala.) was then added at 100 μl/well for one hour at room temperature (all wells are washed three times with PBS-Tween between each incubation step). TMB Membrane Peroxidase Substrate system (Kirkegaard & Perry Laboratories) was freshly miced, and added at […]. The color was allowed to develop for 2-5 minutes. The reaction was stopped by the addition of […] of 1M phosphoric acid. Plates were read on a Microplate IL310 Autoreader (Biotech Instruments, Winooski, Vt.) with a 450 nm filter. The absorbance levels of duplicate wells were averaged. The order of coating antigens listed vertically in these figure legends corresponds in […] from left to right to the coating antigens listed for each histogram.

| Molecule | solubility thermodynamic at 24 h [1] | solution stability in equal concentration combination [2] | IgE binding in direct ELISA [3] | other results |
| --- | --- | --- | --- | --- |
| CC[C@H](C)[C@H](NC(=O)[C@H](CO)NC(=O)[C@H](C)NC(=O)[C@H](CCCCN)NC(=O)[C@@H](NC(=O)[C@H](CCC(=O)O)NC(=O)[C@@H](NC(=O)[C@H](CCCCN)NC(=O)[C@H](C)NC(=O)[C@@H](NC(=O)[C@H](CCCCN)NC(=O)[C@@H](NC(=O)[C@H](CC(N)=O)NC(=O)[C@H](CCC(N)=O)NC(=O)[C@H](CC(N)=O)NC(=O)[C@H](C)NC(=O)[C@H](CCC(=O)O)NC(=O)[C@H](Cc1ccccc1)NC(=O)[C@@H](NC(=O)[C@H](C)NC(=O)[C@H](CCC(=O)O)NC(=O)[C@H](CC(C)C)NC(=O)[C@@H](N)CCC(N)=O)C(C)C)[C@@H](C)O)[C@@H](C)O)[C@@H](C)CC)[C@@H](C)CC)C(=O)N[C@@H](CC(=O)O)C(=O)NCC(=O)N[C@@H](CC(C)C)C(=O)N[C@@H](CCC(=O)O)C(=O)N[C@H](C(=O)O)C(C)C [DP II-22] (H-QLEAVFEANQNTKTAKIEIKASIDGLEV-OH; N-terminus and C-terminus assumed) | – | – | – | solubility (in words, against the superior solubility standard of 3 mg/ml) [1]: did not meet the “superior solubility” requirement of 3 mg/ml; stability (in words) [2]: stable; stability (in words) ([2]; listed as QLEAVFEANQNTKTAKIEIKASIDGLEV): nor did it meet the stability requirement |
| CC[C@H](C)[C@H](NC(=O)[C@H](CO)NC(=O)[C@H](C)NC(=O)[C@H](CCCCN)NC(=O)[C@@H](NC(=O)[C@H](CCC(=O)O)NC(=O)[C@@H](NC(=O)[C@H](CCCCN)NC(=O)[C@H](C)NC(=O)[C@@H](NC(=O)[C@H](CCCCN)NC(=O)[C@@H](NC(=O)[C@H](CC(N)=O)NC(=O)[C@H](CCC(N)=O)NC(=O)[C@H](CC(N)=O)NC(=O)[C@H](C)NC(=O)[C@H](CCC(=O)O)NC(=O)[C@H](Cc1ccccc1)NC(=O)[C@@H](NC(=O)[C@H](C)NC(=O)[C@H](CCC(=O)O)NC(=O)[C@H](CC(C)C)NC(=O)[C@H](CCC(N)=O)NC(=O)[C@H](CCCCN)NC(=O)[C@@H](N)CC(=O)O)C(C)C)[C@@H](C)O)[C@@H](C)O)[C@@H](C)CC)[C@@H](C)CC)C(=O)N[C@@H](CC(=O)O)C(=O)NCC(=O)N[C@@H](CC(C)C)C(=O)N[C@@H](CCC(=O)O)C(=O)N[C@H](C(=O)N[C@@H](CC(=O)O)C(=O)O)C(C)C [DP II-22.6] (H-DKQLEAVFEANQNTKTAKIEIKASIDGLEVD-OH) | – | – | – | solubility (in words, against the superior solubility standard of 3 mg/ml) [1]: solubility did not reach the standard; stability (in words) [2]: stability improved substantially |
| CC(C)[C@H](NC(=O)CNC(=O)[C@H](CCC(=O)O)NC(=O)[C@H](CCC(=O)O)NC(=O)[C@@H](N)CC(=O)O)C(=O)N[C@H](C(=O)N[C@@H](CCC(N)=O)C(=O)N[C@@H](CCC(=O)O)C(=O)N[C@@H](CO)C(=O)N[C@@H](Cc1ccc(O)cc1)C(=O)N[C@@H](Cc1ccc(O)cc1)C(=O)N[C@@H](CCCNC(=N)N)C(=O)N[C@@H](Cc1ccc(O)cc1)C(=O)N[C@H](C(=O)N[C@@H](C)C(=O)N[C@@H](CCCNC(=N)N)C(=O)N[C@@H](CCC(=O)O)C(=O)N[C@@H](CCC(N)=O)C(=O)N[C@@H](CO)C(=O)N[C@@H](CS)C(=O)N[C@@H](CCCNC(=N)N)C(=O)N[C@@H](CCCNC(=N)N)C(=O)N1CCC[C@H]1C(=O)N[C@@H](CC(N)=O)C(=O)N[C@@H](C)C(=O)N[C@@H](CCC(=O)O)C(=O)O)C(C)C)C(C)C [DP I-23.31] (H-DEEGVVQESYYRYVAREQSCRRPNAE-OH; N-terminus and C-terminus assumed) | > 3000 µg/mL | acceptable solution stability | – | – |
| CC(C)C[C@H](NC(=O)[C@H](Cc1ccc(O)cc1)NC(=O)[C@H](C)NC(=O)[C@H](CO)NC(=O)[C@H](CCC(=O)O)NC(=O)[C@@H](NC(=O)[C@H](C)NC(=O)[C@H](C)NC(=O)[C@@H](N)C(C)C)[C@@H](C)O)C(=O)N[C@@H](C)C(=O)N[C@@H](Cc1ccc(O)cc1)C(=O)N[C@@H](CCCNC(=N)N)C(=O)N[C@@H](CC(N)=O)C(=O)N[C@H](C(=O)N[C@@H](CO)C(=O)N[C@@H](CC(C)C)C(=O)N[C@@H](CC(=O)O)C(=O)N[C@@H](CC(C)C)C(=O)N[C@@H](CO)C(=O)N[C@@H](CCC(=O)O)C(=O)N[C@@H](CCC(N)=O)C(=O)N[C@@H](CCC(=O)O)C(=O)N[C@@H](CC(C)C)C(=O)N[C@H](C(=O)N[C@@H](CC(=O)O)C(=O)O)C(C)C)[C@@H](C)O [DF I-22.2] (H-VAATESAYLAYRNTSLDLSEQELVD-OH; N-terminus and C-terminus assumed) | > 3000 µg/mL | acceptable solution stability | – | – |
| CC[C@H](C)[C@H](NC(=O)[C@H](CCC(=O)O)NC(=O)[C@H](C)NC(=O)[C@@H]1CCCN1C(=O)[C@H](C)NC(=O)[C@H](CC(N)=O)NC(=O)CNC(=O)[C@H](CC(N)=O)NC(=O)[C@@H](NC(=O)[C@@H](N)CO)[C@@H](C)CC)C(=O)N[C@@H](CC(=O)O)C(=O)N[C@@H](CC(C)C)C(=O)N[C@@H](CCCNC(=N)N)C(=O)N[C@@H](CCC(N)=O)C(=O)N[C@@H](CCSC)C(=O)N[C@@H](CCCNC(=N)N)C(=O)N[C@H](C(=O)N[C@H](C(=O)N[C@H](C(=O)N1CCC[C@H]1C(=O)N[C@H](C(=O)N[C@@H](CCCNC(=N)N)C(=O)N[C@@H](CCSC)C(=O)N[C@@H](CCC(N)=O)C(=O)O)[C@@H](C)CC)[C@@H](C)O)C(C)C)[C@@H](C)O [DP I-21.2] (H-SINGNAPAEIDLRQMRTVTPIRMQ-OH; N-terminus and C-terminus assumed) | > 3000 µg/mL | acceptable solution stability | – | – |
| CC[C@H](C)[C@H](NC(=O)[C@H](C)NC(=O)[C@H](CS)NC(=O)[C@H](C)NC(=O)[C@H](CC(C)C)NC(=O)[C@@H](NC(=O)CNC(=O)[C@H](CC(=O)O)NC(=O)[C@H](CC(=O)O)NC(=O)CNC(=O)[C@H](CCSC)NC(=O)[C@@H](NC(=O)[C@H](CCCCN)NC(=O)[C@@H](NC(=O)[C@@H](NC(=O)[C@H](CCC(=O)O)NC(=O)[C@H](CCC(=O)O)NC(=O)[C@@H](N)CC(=O)O)[C@@H](C)O)C(C)C)C(C)C)C(C)C)C(=O)N[C@@H](C)C(=O)N[C@H](C(=O)N[C@@H](Cc1c[nH]cn1)C(=O)N[C@@H](C)C(=O)N[C@@H](CCCCN)C(=O)N[C@H](C(=O)N[C@@H](CCCNC(=N)N)C(=O)N[C@@H](CC(=O)O)C(=O)N[C@@H](CCC(=O)O)C(=O)N[C@@H](CCC(=O)O)C(=O)O)[C@@H](C)CC)[C@@H](C)O [DP II-25.15] (H-DEETVKVMGDDGVLACAIATHAKIRDEE-OH; N-terminus and C-terminus assumed) | > 3000 µg/mL | acceptable solution stability | – | – |
| rDer p II: recombinant Der p II expressed in E. coli as His6 fusion (protein) MGHHHHHHEFDQVDVKDCANHEIKKVLVPGCHGSEPCIIHRGKPFQLEAVFEANQNTKTAKIEIKASIDGLEVDVPGIDPNACHYMKCPLVKGQQYDIKYTWNVPKIAPKSENVVVTVKVMGDDGVLACAIATHAKIRD | – | – | good binding | – |
| recombinant Der f I: recombinant Der f I expressed in E. coli as His6 fusion (protein) MGHHHHHHEFTSACRINSVNVPSELDLRSLRTVTPIRMQGGCGSCWAFSGVAATESAYLAYRNTSLDLSEQELVDCASQHGCHGDTIPRGIEYIQQNGVVEERSYPYVAREQRCRRPNSQHYGISNYCQIYPPDVKQIREALTQTHTAIAVIIGIKDLRAFQHYDGRTIIQHDNGYQPNYHAVNIVGYGSTQGDDYWIVRNSWDTTWGDSGYGYFQAGNNLMMIEQYPYVVIM | – | – | no detectable binding | – |
| biochemically purified Der f I: Group I protein allergen of Dermatophagoides farinae, immunoaffinity purified native form (protein) TSACRINSVNVPSELDLRSLRTVTPIRMQGGCGSCWAFSGVAATESAYLAYRNTSLDLSEQELVDCASQHGCHGDTIPRGIEYIQQNGVVEERSYPYVAREQRCRRPNSQHYGISNYCQIYPPDVKQIREALTQTHTAIAVIIGIKDLRAFQHYDGRTIIQHDNGYQPNYHAVNIVGYGSTQGDDYWIVRNSWDTTWGDSGYGYFQAGNNLMMIEQYPYVVIM | – | – | binding | – |

Reference: patent publication US7288256B1, “T cell epitopes of the major allergens from dermatophagoides (house dust mite)” (Merck Patent GmbH, priority 1991, dated 2007)
